“Also recorded” adds a separate entry of the source.
Assays:
[1] = Bio-layer interferometry (BLI) of Fc-fusion CTR-RELN on heparin coated biosensor; assay type: binding; conditions: Fc-fusion (short, furin-cleaved) CTR
Description: We used Fc-fusion Reelin CTR peptides since peptides alone would be smaller than the limit of detection in this experimental design. To assess heparin—Fc-Reelin interaction, the octet system (bio-layer interferometry) was used to assess heparin-protein kinetics. 50 μg/mL biotinylated heparin was immobilized on the biosensor tip surface for 300 sec on preconditioned biosensors. This was followed by quenching with biocytin at 50 μg/ml, baseline buffer diluent for 120 sec, 200 nM of analyte (Fc-fusion proteins) for 120 sec, and disassociation in assay buffer for 120 sec.
The experimental data were fit with the 1:1 binding model and analyzed with global fitting using Octet Data Analysis software to calculate KD.

Aβ42 = molecular target: T1, Aβ42 (Homo sapiens, UniProt P05067); test: Thioflavin T (ThT) Aβ aggregation assay; assay type: biochemical; conditions: Aβ42 55 μM, 10 μM peptide, vs Aβ alone
T1 construct: SensoLyte ThT O-Amyloid (1-42) Aggregation kit
T1 sequence (P05067 672-713 limits assumed): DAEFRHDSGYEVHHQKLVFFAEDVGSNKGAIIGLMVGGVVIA
Description: Therefore, the ThT assay can be used to quantify AB aggregation using previously developed methods (40).
We incubated CTR-RELN with Aβ and monitored aggregation using a ThioflavinT fluorescence assay normalized to the maximum ThT emission of Aβ only. We also assayed Aβ in the presence of morin, a known inhibitor (41), as a […]. Long and short WT and H3447R RELN CTR peptides were included to better understand the potential role of the H3447R mutation in amyloid pathology (FIGS. 14 and 15. Negative controls included long and short RELN CTR peptides with neutrally charged AAs (histidines) in place of basic AAs in the alpha- and beta-GAG binding sites.
A Thioflavin T (ThT) assay was also performed using synthetic Reelin peptides to assess the differential effects of these proteins on Aβ42 aggregation in vitro using Thioflavin T (SensoLyte ThT O-Amyloid (1-42) Aggregation kit, catalog no. ΔS-72214). Aβ42 was added to a final concentration of 55 μM in solutions of 10 μM of Reelin peptide variants in a transparent, no-binding 96-well plate. Samples were then mixed with 2 mM Thioflavin T dye and fluorescence was read at excitation wavelength/emission wavelength (Ex/Em)=440/484 nm at intermittent time intervals over 2 h. The plate was kept at 37° C. with 15 s shaking between reads. […] In general, it appears that the RELN Cterm domain is highly unstructured. […] If the mini-RELN includes the C-term domain only without a receptor binding domain then the protection will not involve signaling, but will still involve direct interactions with tau. If the mini-RELN includes the C-term domain and the receptor binding domain, it will have at least two protective mechanisms, namely RELN signaling and direct interactions with tau.

[2] = Heparin-sepharose affinity column chromatography, NaCl step gradient; assay type: binding
Description: We tested changes in binding to heparin of RELN variants chromatographically using an optimized version of a protocol previously published by our laboratory (1). Briefly, after equilibration of the heparin column (BioVision 6554-1) at R.T., columns were washed with five volumes of degassed 20 mM TRIS-HCl buffer (pH 7.5). Recombinant C-terminus RELN peptides were produced and purified by Innovagen (Sweden): (WT) […](SEQ ID NO:56), and (H3447R) […](SEQ ID NO:53). One mL of 50 μg/mL peptide (H3447 or WT, and H3447R) was recycled through the column five times and the last flow through collected for further analysis. The column was washed five times with the same buffer and the protein eluted using a 0.05 M step gradient of NaCl in 20 mM Tris-HCl (0-1M, one mL per fraction). To ensure the complete release of the protein, the column was washed with five M NaCl 20 mM Tris-HCl. Three independent experiments were conducted for C-terminus RELN WT and H3447R. All eluted fractions were analyzed spectroscopically by reading the absorbance at 280 nm using Nanodrop 2000 Spectrophotometer. Blank corrected fractions were subsequently analyzed using GraphPad Prism 8.
To assess Reelin-heparin binding affinity, Reelin variants were run on a heparin column with steps of 0.05M in a range of 0.05-1M NaCl over 20 1 mL column volumes in 20 mM Tris HCl, as described in Arboleda et. al 2019 (2). Sample fractions were eluted at an increasing NaCl step size to determine the ionic strength needed to disrupt the binding between Reelin and heparin. Therefore, the stronger the interaction, the higher concentration of salt would be needed to disrupt the bond.

## RKQNYMMNFSRQHGLRRFYNRRRRSLRRYP [CTR-RELN H3447R]
[1]; listed as H3447R
  interaction/affinity with heparin relative to WT: ~2 fold
[1]; listed as RELN H3447R
  interaction/affinity with heparin relative to WT: about 2 fold
Aβ42; listed as COLBOS variant
  Aβ aggregation (ThT fluorescence): enhanced this effect
Aβ42; listed as H3447R
  Aβ aggregation (ThT fluorescence): did not significantly affect Aβ aggregation compared to WT
Aβ42; listed as RELN H3447R
  Aβ aggregation (ThT fluorescence): similarly effective at inhibiting ThT aggregation as WT
[2]; 0.05 M NaCl step gradient in 20 mM Tris HCl, UV 280 nm
  NaCl concentration of peak eluted fraction from heparin column: 0.7 M NaCl
[2]; affinity chromatography, NaCl gradient
  binding to and release from heparin column: bound to heparin; also recorded: required higher NaCl salt concentrations to be released
